In US20220296597A1, “USE OF A NEUTROPHIL ELASTASE INHIBITOR IN LUNG DISEASE” (pH Pharma Co., Ltd., priority 2019, published 2022):
Read-outs that look alike come from different tables or passages of the source.

What was measured:
[1] = Solubility of the drug substance; format: physicochemical
[2] = Hygroscopicity of the drug substance; format: physicochemical; conditions: normal storage conditions
[3] = Example 2 Phase 1 single-ascending dose study in healthy subjects; format: in vivo, human
From the text: Following Screening, subjects received single doses of study drug and were monitored during an in-clinic period and an out-patient follow-up period. Subjects were confined to the study site for Study Days −2 through 7 to collect PK and safety assessments. Following discharge from the study site on Study Day 7, subjects returned to the study site on Study Days 14, 21, 28, and 35.

[4] = healthy subjects, cited from earlier work
[5] = non-CF BE patients, 28 days, cited from earlier work

solubility in acetone ([1]; acetone): soluble
solubility in ethanol ([1]; ethanol): very slightly soluble
solubility in water ([1]; water): practically insoluble
hygroscopicity [2]: not hygroscopic
subjects with headache ([3]; 36 received Compound 1, single doses 1 to 40 mg): one
exposure (AUC and Cmax) with dose ([3]; single doses 1 to 40 mg): proportional increases
SMILES: CC1=C(C#N)[C@@H](c2ccc(C#N)cc2S(C)(=O)=O)N(C)C(=O)N1c1cccc(C(F)(F)F)c1 [Compound 1, (4S)-4-[4-cyano-2-(methylsulfonyl)phenyl]-3,6-dimethyl-2-oxo-1-[3-(trifluoromethyl)phenyl]-1,2,3,4-tetrahydropyrimidine-5-carbonitrile]
AE rate compared with placebo ([3]; single doses 1 to 40 mg): somewhat lower than that in the control (placebo) subjects
effects on laboratory safety evaluations (clinical chemistry and hematology) ([3]; single doses 1 to 40 mg): no clear effects
serious AEs ([3]; single doses 1 to 40 mg): no serious AEs
study drug-induced laboratory or ECG abnormalities ([4]; Phase 1 studies): No safety signals
safety and tolerability ([4]; single and repeated doses up to 1 mg for up to 14 days): safe and well tolerated
serious adverse events ([4]; three Phase 1 studies): no serious AEs (SAEs) were reported
safety and tolerability ([5]; 1.0 mg oral IR tablet): generally safe and well tolerated
SAEs attributed to the drug ([5]; 1.0 mg oral): no SAEs were attributed by the investigator to the drug
study drug-induced laboratory parameter or ECG effects ([5]; 1.0 mg oral): No safety signals
